{"source": "patent US7067500B2", "about": "“Betaines as adjuvants to susceptibility testing and antimicrobial therapy” (priority 1997, dated 2006)", "key": {"[1]": {"test_system": "M. tuberculosis isolates ATCC 27294 and 571/573-BAL", "experiment": "CB-18 and TMA-18 comparison, BACTEC 12B growth curves", "format": "cell-based, Mycobacterium tuberculosis", "procedure": "If the mechanism of CB-18's action was similar to that of the quaternary salts (i.e., generally deleterious), then some delay would be anticipated. For example, if the CB-18 effect was a consequence of the surface active property of the detergent, then disruption of cellular function would not only have nonspecific long term consequences, but would also be independent of the isolate. In an effort to examine the similarity in the mechanism, CB-18 was assayed in parallel with trimethyloctadecylammonium bromide (TMA-18 (Aldrich, Milwaukee, Wis., Cat.# 35,924-6): made as a 100× stock in 1:1, water:isopropanol similar to that described for CB-18 in Example 1). The experimental design is outlined in FIG. 6.\nIn this experiment both ATCC 27294 and 571/573-BAL were cultivated on 7H11-selective media, and then serially diluted in NALC/citrate to 10,000×. The planting solution (i.e., the final dilution (50,000×)) was manufactured by diluting into either buffer, 0.5 mM CB-18, or 0.1 mM TMA-18 (all concentrations represent the final detergent concentration in the planting solution). […] The final concentration of CB-18 during incubation was approximately 17 μg/ml. The final concentration of TMA-18 during incubation was approximately 3.4 μg/ml. […] FIGS. 7A–7C show one experiment wherein ATCC 27294 cells were planted in the different solutions described above, and FIGS. 8A–8C show a parallel experiment wherein 571/573-BAL cells were planted in the same series."}, "[2]": {"test_system": "M. tuberculosis isolates ATCC 27294 and 571/573-BAL", "experiment": "Processing in CB-18 vs. planting in CB-18, BACTEC 12B growth curves"}, "[3]": {"test_system": "M. tuberculosis isolate 571/573-BAL", "experiment": "Detergent screen for induced susceptibility, BACTEC 12B growth curves", "format": "cell-based, Mycobacterium tuberculosis", "conditions": "for effect on growth characteristics: 571/573-BAL"}, "[4]": {"test_system": "M. tuberculosis isolates (Table 8)", "experiment": "MTB isolates vs. antibiotic screen in the presence and absence of CB-18", "conditions": "CB-18 17 μg/ml"}, "[5]": {"test_system": "M. avium complex isolates ATCC 25291 and 802-BAL", "experiment": "CB-18 titration, BACTEC 12B growth curves", "format": "cell-based", "conditions": "MAC isolate 802-BAL; CB-18 alone (7–27 μg/ml tested)"}, "[6]": {"test_system": "M. tuberculosis isolates ATCC 27294 and 571/573-BAL", "experiment": "CB-18 vs. EDTA, BACTEC 12B growth curves", "format": "cell-based, Mycobacterium tuberculosis"}, "[7]": {"test_system": "M. tuberculosis isolate 571/573-BAL", "experiment": "Planting in lecithin at low inocula, BACTEC 12B growth curves", "format": "cell-based, Mycobacterium tuberculosis", "conditions": "CB-18 (17 μg/ml) combined with P/caz; inocula 165±54, 33±11 and 8±3 cfu", "text": "In this experiment the 571/573-BAL isolate was cultivated on 7H11-selective media, serially diluted in NALC/citrate to approximately 1,000×. In an attempt to examine how the inoculum impacted the results of this assay three different stocks were manufactured, one series in buffer and one series in CB-18. […] The planting solutions were manufactured by mixing these three stocks 1:1 with either buffer or a buffered solution of lecithin (Sigma, St. Louis, Mo.; Cat.#: P 5394 (7.5% lecithin was made up as a 100× concentrate in 100% ethanol (3 grams in 40 mls) and diluted in the Tris buffer of Example 1 immediately prior to use)). The final dilutions of three different planting solutions were approximately 5000×, 25,000×, and 100,000×. The final concentration of CB-18 and lecithin in the appropriate planting solutions was approximately 0.5 mM. […] The final concentration of both lecithin and CB-18 during incubation was approximately 17 μg/ml.\nAliquots of the three stocks (i.e., 2,500×, 12,500× and 50,000×) were also taken for quantitative culture by plating on 7H10 plates (Becton Dickinson, Cockeysville, Md.). […] FIG. 5A presents the 5,000× series planted in either buffer or buffer containing lecithin, and FIG. 5B presents the 5,000× series planted in CB-18 or CB-18 combined with lecithin. FIG. 5C presents the 25,000× series planted in either buffer or buffer containing lecithin, and FIG. 5D presents the 25,000× series planted in CB-18 or CB-18 combined with lecithin. FIG. 5E presents the 100,000× series planted in either buffer or buffer containing lecithin, and FIG. 5F presents the 100,000× series planted in CB-18 or CB-18 combined with lecithin."}, "[8]": {"test_system": "M. tuberculosis isolates ATCC 27294 and 571/573-BAL", "experiment": "Mycobacterial susceptibility testing (proportion method criteria) with CB-18 and P-cax", "format": "cell-based, Mycobacterium tuberculosis"}, "[9]": {"test_system": "M. fortuitum complex isolates ATCC 6841 and 495-JHH", "experiment": "CB-18 titration, BACTEC 12B growth curves", "format": "cell-based", "conditions": "M. fortuitum 495-JHH"}}, "note": "Several values for one entry are separate records, joined by “and”; a condition that tells them apart may be missing. Identical values can stand only once. Entries after “also recorded” stand apart in the source; their conditions may differ. Counter-ions that a name gives are not always drawn."}
{"molecule": "CCCCCCCCCCCCCCCCCC[N+](C)(C)CCCC(=O)[O-]", "note": "[CB-18, N-(3-carboxypropyl)-N,N-dimethyl-1-octadecanaminium, inner salt]", "values": [{"measurement": "effect on growth", "setting": "[1]; 571/573-BAL, 17 μg/ml CB-18, R.F., PANTA and P/cax", "result": "delays in all conditions became obvious"}, {"measurement": "effect on growth", "setting": "[1]; 571/573-BAL, 17 μg/ml CB-18 with P/cax", "result": "dramatic delay"}, {"measurement": "effect on growth", "setting": "[1]; ATCC 27294, 17 μg/ml CB-18 in PANTA alone", "result": "minor delays"}, {"measurement": "effect on growth", "setting": "[1]; ATCC 27294, 17 μg/ml CB-18 with P/cax", "result": "significant delays"}, {"measurement": "effect on growth characteristics", "setting": "[2]; 571/573-BAL, 90 minute exposure to CB-18 at 383 μg/ml, planted in buffer", "result": "no apparent effect on growth characteristics"}, {"measurement": "CB-18 concentration in the culture bottle at which growth was unimpeded", "setting": "[2]; 571/573-BAL, processed in CB-18, then diluted", "result": "< 1", "unit": "µg/mL"}, {"measurement": "impact on growth characteristics", "setting": "[2]; ATCC 27294, processed in CB-18 (383 μg/ml) and/or planted in CB-18 (17 μg/ml final), PANTA or P/caz", "result": "generally unaffected"}, {"measurement": "post antibiotic effect", "setting": "[2]; cells processed in CB-18 but planted in buffer", "result": "no post antibiotic effect; also recorded: no “post antibiotic effect”"}, {"measurement": "effect on growth characteristics", "setting": "[3]; CB-18 (17 μg/ml) combined with antibiotics (PANTA, P/cax)", "result": "synergistically deleterious"}, {"measurement": "effect on growth characteristics", "setting": "[3]; CB-18 alone (17 μg/ml, R.F.)", "result": "had an impact on the growth characteristics"}, {"measurement": "CB-18 effect in the methods of the invention", "setting": "[3]; carboxybetaines tested", "result": "show the CB-18 effect"}, {"measurement": "CB-18 induced sensitivity to antibiotics tested", "setting": "[4]; 040-TBR", "result": "affected by CB-18 to some degree; also recorded: Minor CB-18 induced sensitivity to most antibiotics"}, {"measurement": "effect of CB-18 on cax sensitivity (degree of exacerbation)", "setting": "[4]; 040-TBR, P/cax", "result": "significantly affected by the presence of CB-18; also recorded: tested, however, cax sensitivity significantly"}, {"measurement": "CB-18 induced sensitivity to antibiotics tested", "setting": "[4]; 52-96-BOL", "result": "affected by CB-18 to some degree; also recorded: Minor CB-18 induced sensitivity to most antibiotics"}, {"measurement": "effect of CB-18 on cax sensitivity (degree of exacerbation)", "setting": "[4]; 52-96-BOL, P/cax", "result": "significantly affected by the presence of CB-18; also recorded: tested, however, cax sensitivity significantly"}, {"measurement": "CB-18 induced sensitivity to antibiotics tested", "setting": "[4]; 57-96-BOL (MDR)", "result": "exacerbated in the presence of CB-18; also recorded: moderate CB-18 induced sensitivity to most"}, {"measurement": "effect of CB-18 on cax sensitivity", "setting": "[4]; 061-TBR, P/cax", "result": "exacerbated by CB-18. Strain is INH resistant"}, {"measurement": "CB-18 induced sensitivity to antibiotics tested", "setting": "[4]; 512-JHH", "result": "Minor CB-18 induced sensitivity to most antibiotics"}, {"measurement": "CB-18 induced sensitivity to antibiotics tested", "setting": "[4]; 535-BAL", "result": "unaffected by CB-18 at this concentration"}, {"measurement": "effect of CB-18 on cax sensitivity", "setting": "[4]; 535-BAL, P/cax", "result": "cax sensitivity was independent of CB-18"}, {"measurement": "CB-18 induced sensitivity to antibiotics tested", "setting": "[4]; 538-JHH", "result": "Minor CB-18 induced sensitivity to most antibiotics"}, {"measurement": "CB-18 induced sensitivity to antibiotics tested", "setting": "[4]; 571-BAL", "result": "remarkable induction of susceptibility for all drugs tested; also recorded: Dramatic CB-18 induced sensitivity"}, {"measurement": "CB-18 induced sensitivity to antibiotics tested", "setting": "[4]; 573-BAL", "result": "remarkable induction of susceptibility for all drugs tested; also recorded: Dramatic CB-18 induced sensitivity"}, {"measurement": "effect of CB-18 on cax sensitivity", "setting": "[4]; 896-BAL, P/cax", "result": "slightly exacerbated by CB-18. Strain is multi"}, {"measurement": "effect of CB-18 on cax sensitivity", "setting": "[4]; ATCC 27294, P/cax (ceftriaxone 8 μg/ml)", "result": "minor delays; also recorded: exacerbated by CB-18"}, {"measurement": "CB-18 induced sensitivity to antibiotics tested", "setting": "[4]; ATCC 27294, PANTA, P/caz, P/cfp, P/cax, P/cft", "result": "little or no difference; also recorded: Minimal, if any, CB-18 induced sensitivity to"}, {"measurement": "CB-18 concentration at which viability falls off", "setting": "[5]", "result": "not affected at the test concentrations; also recorded: Viability is unaffected at levels tested"}, {"measurement": "effect on growth", "setting": "[6]; 571/573-BAL, CB-18 alone 17 μg/ml", "result": "suppressed"}, {"measurement": "effect on growth", "setting": "[6]; ATCC 27294, CB-18 alone 17 μg/ml, absence of MgCl2", "result": "unaffected"}, {"measurement": "effect on growth", "setting": "[6]; ATCC 27294 and 571/573-BAL, CB-18 17 μg/ml with P/cax", "result": "synergistically deleterious"}, {"measurement": "culture result of replicate bottles", "setting": "[7]", "result": "negative"}, {"measurement": "CB-18 concentration at which the isolate would have been reported as susceptible", "setting": "[8]; 571/573-BAL, 10×-dilution (111,000 ± 17,900 cfu), in the presence of P-cax", "result": "60 µg/mL and 30 µg/mL"}, {"measurement": "CB-18 concentration at which the isolate would have been reported as susceptible", "setting": "[8]; 571/573-BAL, 100×-dilution (11,100 ± 1,790 cfu), in the presence of P-cax", "result": 15, "unit": "µg/mL"}, {"measurement": "CB-18 concentration at which the isolate would have been reported as susceptible", "setting": "[8]; ATCC 27294, 10×-dilution (62,800 ± 5,700 cfu), in the presence of P-cax", "result": 60, "unit": "µg/mL"}, {"measurement": "CB-18 concentration at which the isolate would have been deemed susceptible", "setting": "[8]; ATCC 27294, 100×-dilution (6,280 ± 570 cfu), in the presence of P-cax", "result": 30, "unit": "µg/mL"}, {"measurement": "growth of isolates", "setting": "[8]; both isolates, high input (>1×10^5 cfu), 30 μg/ml CB-18", "result": "grew unimpeded during the first week"}, {"measurement": "CB-18 concentration at which the isolate was viable / able to grow to some degree", "setting": "[9]; CB-18 alone", "result": 109, "unit": "µg/mL"}, {"measurement": "CB-18 concentration at which growth was affected to some degree", "setting": "[9]; combined with cefoxitin", "result": 13, "unit": "µg/mL"}, {"measurement": "CB-18 concentration at which growth was completely inhibited", "setting": "[9]; combined with cefoxitin", "result": 27, "unit": "µg/mL"}]}
